This experiment has as its system WT. The arrangement: species or system HIV-1. To be noted: read-out: Cell-based assay (MT-4) EC50/nM WT.

Experimental findings from patent publication US20070190523A1 (priority 2002, published 2007) are described below.

In the case of `O=C1N(Cc2ccccc2)C(Cc2ccccc2)C(O)C(O)C(Cc2ccc(O)cc2)N1Cc1ccccc1` (stereo not shown) [H / Ph / OH], the EC50 turned out to be 1260 nM.
